IC50 and melting point data for twelve compounds are collected here from patent US20070082880A1 (priority 2005, published 2007).

One series has as its target PKCθ (Homo sapiens, UniProt Q04759). In words: PKCθ Scintiplate Assay. The class given is biochemical. As to conditions: average value when one or more samples were tested.
The target of series [1] is T1, human PKCθ full length enzyme (Homo sapiens, UniProt Q04759).
T1 construct: human PKCθ full length enzyme (Panvera Catalog No. P2996); purchased Panvera P2996
In words: PKCθ IMAP Assay. The class given is biochemical. To be noted: average value when one or more samples were tested; ATP 6 uM, PKCθ 1 nM. In short, it runs like this:
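IMAP fluorescence polarization after 20 min with binding beads measured phosphorylation of 100 nM 5FAM-peptide. Reactions held 1 nM full-length human PKCθ, 6 uM ATP, 5% DMSO and DTT-containing buffer, 25 min at room temperature. Compounds tested as 2:1 serial dilutions; controls lacked ATP or enzyme.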

Sequence of PKCθ (Q04759 362-706 limits assumed): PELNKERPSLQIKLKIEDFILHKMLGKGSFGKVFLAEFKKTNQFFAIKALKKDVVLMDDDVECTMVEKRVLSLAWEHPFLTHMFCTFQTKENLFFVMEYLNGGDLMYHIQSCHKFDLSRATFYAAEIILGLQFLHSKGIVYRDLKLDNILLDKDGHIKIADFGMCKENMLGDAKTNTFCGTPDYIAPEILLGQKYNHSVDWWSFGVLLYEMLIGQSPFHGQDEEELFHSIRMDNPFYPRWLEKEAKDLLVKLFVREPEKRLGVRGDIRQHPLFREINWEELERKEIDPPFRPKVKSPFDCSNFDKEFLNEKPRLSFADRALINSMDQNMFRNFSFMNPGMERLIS
T1 sequence (Q04759 whole entry): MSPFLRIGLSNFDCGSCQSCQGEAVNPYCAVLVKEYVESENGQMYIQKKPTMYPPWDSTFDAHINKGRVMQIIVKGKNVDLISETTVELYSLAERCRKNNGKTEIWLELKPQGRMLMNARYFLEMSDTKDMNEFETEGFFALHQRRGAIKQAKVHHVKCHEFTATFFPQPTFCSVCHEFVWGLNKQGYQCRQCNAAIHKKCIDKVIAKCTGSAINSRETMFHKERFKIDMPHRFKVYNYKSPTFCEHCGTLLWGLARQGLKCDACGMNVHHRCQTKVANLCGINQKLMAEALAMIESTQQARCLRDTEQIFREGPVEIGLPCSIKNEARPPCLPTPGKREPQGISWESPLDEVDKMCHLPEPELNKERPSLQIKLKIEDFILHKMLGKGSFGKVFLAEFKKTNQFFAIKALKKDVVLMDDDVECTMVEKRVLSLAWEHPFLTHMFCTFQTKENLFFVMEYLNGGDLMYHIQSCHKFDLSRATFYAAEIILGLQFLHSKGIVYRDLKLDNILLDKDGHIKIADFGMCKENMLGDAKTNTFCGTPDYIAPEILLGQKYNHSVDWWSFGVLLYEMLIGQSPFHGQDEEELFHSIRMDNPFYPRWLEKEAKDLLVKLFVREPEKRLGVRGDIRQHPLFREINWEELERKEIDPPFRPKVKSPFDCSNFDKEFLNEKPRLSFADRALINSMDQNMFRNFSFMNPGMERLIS

Consider `CN1CCN(Cc2cccc(-c3cc4c(Nc5cccc6[nH]ccc56)c(C#N)cnc4s3)c2)CC1` [Compound 140, 4-(1H-indol-4-ylamino)-2-{3-[(4-methylpiperazin-1-yl)methyl]phenyl}thieno[2,3-b]pyridine-5-carbonitrile], for which the melting point (commonly the temperature, or range, at which the solid turns liquid) was greater than 245 °C. In addition, inhibition against PKCθ was half-maximal at 0.034 µM (IC50). In series [1], the IC50 (commonly the concentration that gives 50% inhibition) came to 0.022 µM.
In turn, `N#Cc1cnc2sc(-c3ccccc3)cc2c1Nc1cccc2[nH]ccc12` [Compound 115, 4-(1H-indol-4-ylamino)-2-phenylthieno[2,3-b] pyridine-5-carbonitrile] yielded a melting point greater than 245 °C. This compound had an IC50 on PKCθ of 0.12 µM.
`N#Cc1cnc2sc(-c3ccc(CN)cc3)cc2c1Nc1ccc2[nH]ccc2c1` [Compound 188, 2-[4-(aminomethyl)phenyl]-4-(1H-indol-5-ylamino)thieno[2,3-b]pyridine-5-carbonitrile] came in with a melting point greater than 260 °C. The IC50 at PKCθ was 0.027 µM. The IC50 in series [1] was determined as 0.034 µM.
Regarding `N#Cc1cnc2sc(-c3ccccc3)cc2c1-c1ccc2[nH]ccc2c1` [Compound 131, 4-(1H-indol-5-yl)-2-phenylthieno[2,3-b]pyridine-5-carbonitrile], the melting point was greater than 245 °C. At PKCθ, this compound showed an IC50 greater than 300 µM.
`N#Cc1cnc2sc(-c3ccccc3)cc2c1Nc1cccc2cc[nH]c12` [Compound 109, 4-(1H-indol-7-ylamino)-2-phenylthieno[2,3-b]pyridine-5-carbonitrile] gave a melting point greater than 245 °C. Besides, on PKCθ, the IC50 is greater than 150 µM.
For the compound `CN1CCN(Cc2ccccc2-c2cc3c(Nc4ccc5[nH]ccc5c4)c(C#N)cnc3s2)CC1` [Compound 185, 4-(1H-indol-5-ylamino)-2-{2-[(4-methylpiperazin-1-yl)methyl]phenyl} thieno[2,3-b]pyridine-5-carbonitrile], the melting point was in the range of 226 to 228 °C. This compound also came in with an IC50 on PKCθ of 0.53 µM.
The compound `N#Cc1cnc2sc(-c3ccccc3)cc2c1NCCc1c[nH]cn1` [Compound 127, 4-{[2-(1H-imidazol-4-yl)ethyl]amino}-2-phenylthieno[2,3-b]pyridine-5-carbonitrile] displayed a melting point greater than 245 °C. Half-maximal inhibition against PKCθ (IC50) was put at 3 µM.
As to `CN1CCN(Cc2ccc(-c3cc4c(Nc5cccc6[nH]ccc56)c(C#N)cnc4s3)cc2)CC1` [Compound 137, 4-(1H-indol-4-ylamino)-2-{4-[(4-methylpiperazin-1-yl)methyl]phenyl}thieno[2,3-b]pyridine-5-carbonitrile], the melting point was greater than 245 °C. For the same compound, the IC50 against PKCθ came to 0.082 µM. Further, 0.052 µM corresponded to half-maximal inhibition in series [1] (IC50).
On to `CN1CCN(Cc2ccc(-c3cc4c(Nc5ccc6[nH]ccc6c5)c(C#N)cnc4s3)nc2)CC1` [Compound 203, 4-(1H-indol-5-ylamino)-2-{5-[(4-methylpiperazin-1-yl)methyl]pyridine-2-yl}thieno[2,3-b]pyridine-5-carbonitrile], for which the melting point is greater than 245 °C. At PKCθ, this compound yielded an IC50 of 0.11 µM.
Take `CN1CCN(CCC#Cc2csc3ncc(C#N)c(Nc4ccc5[nH]ccc5c4)c23)CC1` [Compound 244, 4-(1H-indol-5-ylamino)-3-[4-(4-methylpiperazin-1-yl)but-1-yn-1-yl]thieno[2,3-b]pyridine-5-carbonitrile]: the melting point fell in the range of 184 to 186 °C. Further, it took 0.56 µM to reach half-maximal inhibition against PKCθ (IC50). In addition, in series [1], the IC50 was 0.57 µM.
The matching figures for `N#Cc1cnc2sc(-c3ccc(CN4CCOCC4)cc3)cc2c1Nc1ccc2[nH]ccc2c1` [Compound 101, 4-(1H-indol-5-ylamino)-2-[(4-morpholin-4-ylmethyl)phenyl]thieno[2,3-b]pyridine-5-carbonitrile]: 251 to 253 °C, 0.37 µM and 0.4 µM.
Consider `N#Cc1cnc2sc(-c3ccccc3)cc2c1Nc1ccc2[nH]ccc2c1` [Compound 107, 4-(1H-indol-5-ylamino)-2-phenylthieno[2,3-b]pyridine-5-carbonitrile], for which the melting point is greater than 245 °C. Further, on PKCθ, the IC50 turned out to be 0.079 µM. In series [1], this compound yielded an IC50 of 0.46 µM.
